According to paper PMC4281142, “Fomiroid A, a Novel Compound from the Mushroom Fomitopsis nigra, Inhibits NPC1L1-Mediated Cholesterol Uptake via a Mode of Action Distinct from That of Ezetimibe” (PLoS ONE, 2014):

Legend:
[1] = molecular target: T1, NPC1L1 (rNPC1L1) (Rattus norvegicus, UniProt Q6T3U3); assay: competitive radioligand binding, [3H]ezetimibe glucuronide, HEK293/rNPC1L1 membranes
T1 construct: rat NPC1L1 (GenBank AY437867), membranes from stably expressing HEK293 cells

[2] = molecular target: T1, NPC1L1 (rNPC1L1); assay: competitive radioligand binding, [3H]ezetimibe glucuronide, HEK293/rNPC1L1 membranes (two-site fit; low-affinity site […])

Compound	IC50 [1]	IC50 [2]
O=C1[C@H](CC[C@H](O)c2ccc(F)cc2)[C@@H](c2ccc(O)cc2)N1c1ccc(F)cc1 [ezetimibe]	332 ± 4.2 nM	–
CC(C)=CCCC(CO)C1CC(O)C2(C)C3=C(CCC12C)C1(C)CCC(=O)C(C)(C)C1CC3 (centres unmarked) [fomiroid A, 15, 21-dihydroxylanosta-8, 24-dien-3-one]	–	4830 ± 200 nM
